Results taken from ChEMBL document CHEMBL1130674, “N-arylrolipram derivatives as potent and selective PDE4 inhibitors” (1998).

Tests used:
Rattus norvegicus [1] = experiment: Eosinophil accumulation in sensitized brown norway rats at 1 mg/kg dose (No of rats = 5); format: functional
[2] = molecular target: T1, 3',5'-cyclic-AMP phosphodiesterase 4B (Rattus norvegicus) (UniProt P14646); experiment: Inhibition of phosphodiesterase (PDE) 4B
T1 sequence (whole entry): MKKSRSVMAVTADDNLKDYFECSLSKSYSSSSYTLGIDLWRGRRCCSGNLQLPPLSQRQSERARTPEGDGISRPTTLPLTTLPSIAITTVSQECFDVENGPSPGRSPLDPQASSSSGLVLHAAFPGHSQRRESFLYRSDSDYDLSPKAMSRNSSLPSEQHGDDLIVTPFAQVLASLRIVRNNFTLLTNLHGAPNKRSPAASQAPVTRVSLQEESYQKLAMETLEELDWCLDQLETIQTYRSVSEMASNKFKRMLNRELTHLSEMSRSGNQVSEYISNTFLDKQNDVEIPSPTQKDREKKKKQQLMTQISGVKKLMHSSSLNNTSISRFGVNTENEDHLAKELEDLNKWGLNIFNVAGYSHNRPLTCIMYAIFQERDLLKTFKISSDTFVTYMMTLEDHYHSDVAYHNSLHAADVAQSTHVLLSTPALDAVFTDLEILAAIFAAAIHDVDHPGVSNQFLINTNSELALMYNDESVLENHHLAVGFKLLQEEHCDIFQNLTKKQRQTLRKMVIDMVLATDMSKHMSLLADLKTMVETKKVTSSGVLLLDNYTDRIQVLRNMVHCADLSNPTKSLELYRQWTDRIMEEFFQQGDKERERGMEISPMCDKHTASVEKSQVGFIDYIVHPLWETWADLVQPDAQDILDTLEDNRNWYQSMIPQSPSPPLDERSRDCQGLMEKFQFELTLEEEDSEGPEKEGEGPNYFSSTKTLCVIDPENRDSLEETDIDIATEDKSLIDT

PBMC [3] = experiment: Inhibition of anti-CD3 induced IL-4 release by human peripheral blood mononuclear cells.; format: functional
PBMC [4] = experiment: Inhibition of anti-CD3 induced T-cell proliferation in human peripheral blood mononuclear cells.; format: functional
[5] = molecular target: 3',5'-cyclic-AMP phosphodiesterase 4D (Homo sapiens) (UniProt Q08499); experiment: Inhibition of phosphodiesterase (PDE) 4D
Chain of 3',5'-cyclic-AMP phosphodiesterase 4D (Homo sapiens) (Q08499 whole entry): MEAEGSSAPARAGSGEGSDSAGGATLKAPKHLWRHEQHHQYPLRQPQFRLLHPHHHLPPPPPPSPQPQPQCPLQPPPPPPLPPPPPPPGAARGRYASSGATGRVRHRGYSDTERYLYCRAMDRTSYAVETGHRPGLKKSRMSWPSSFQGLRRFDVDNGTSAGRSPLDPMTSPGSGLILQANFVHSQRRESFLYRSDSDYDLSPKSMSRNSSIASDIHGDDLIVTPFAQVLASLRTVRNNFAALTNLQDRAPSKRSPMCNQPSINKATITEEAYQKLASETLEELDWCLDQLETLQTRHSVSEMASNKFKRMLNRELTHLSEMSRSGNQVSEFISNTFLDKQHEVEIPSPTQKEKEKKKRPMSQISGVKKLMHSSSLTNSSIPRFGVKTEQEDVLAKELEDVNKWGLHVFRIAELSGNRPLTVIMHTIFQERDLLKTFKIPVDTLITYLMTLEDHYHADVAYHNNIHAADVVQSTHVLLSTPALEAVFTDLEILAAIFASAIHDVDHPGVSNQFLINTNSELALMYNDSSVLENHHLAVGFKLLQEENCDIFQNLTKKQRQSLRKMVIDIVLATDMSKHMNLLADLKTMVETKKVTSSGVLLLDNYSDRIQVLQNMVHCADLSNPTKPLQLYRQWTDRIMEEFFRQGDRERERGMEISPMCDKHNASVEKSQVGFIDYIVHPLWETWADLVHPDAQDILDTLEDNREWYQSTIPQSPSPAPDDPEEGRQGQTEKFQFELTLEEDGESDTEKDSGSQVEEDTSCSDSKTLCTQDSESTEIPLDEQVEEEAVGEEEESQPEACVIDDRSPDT

PBMC [6] = experiment: Inhibition of LPS induced TNF-alpha release by human peripheral blood mononuclear cells.; format: functional
[7] = molecular target: Phosphodiesterase 3 (Homo sapiens) (UniProt Q14432+Q13370); experiment: Inhibition of phosphodiesterase (PDE) 3; format: protein assay
PBMC [8] = experiment: Inhibition of anti-CD3 induced IFN-gamma-release in human peripheral blood mononuclear cells.; format: functional
[9] = Inhibition of rolipram binding
Homo sapiens = organism: Homo sapiens; experiment: Inhibition of fMLP induced oxidative burst in human eosinophils.; format: functional
[10] = molecular target: 3',5'-cyclic-AMP phosphodiesterase 4A (Homo sapiens) (UniProt P27815)
Chain of 3',5'-cyclic-AMP phosphodiesterase 4A (Homo sapiens) (P27815 whole entry): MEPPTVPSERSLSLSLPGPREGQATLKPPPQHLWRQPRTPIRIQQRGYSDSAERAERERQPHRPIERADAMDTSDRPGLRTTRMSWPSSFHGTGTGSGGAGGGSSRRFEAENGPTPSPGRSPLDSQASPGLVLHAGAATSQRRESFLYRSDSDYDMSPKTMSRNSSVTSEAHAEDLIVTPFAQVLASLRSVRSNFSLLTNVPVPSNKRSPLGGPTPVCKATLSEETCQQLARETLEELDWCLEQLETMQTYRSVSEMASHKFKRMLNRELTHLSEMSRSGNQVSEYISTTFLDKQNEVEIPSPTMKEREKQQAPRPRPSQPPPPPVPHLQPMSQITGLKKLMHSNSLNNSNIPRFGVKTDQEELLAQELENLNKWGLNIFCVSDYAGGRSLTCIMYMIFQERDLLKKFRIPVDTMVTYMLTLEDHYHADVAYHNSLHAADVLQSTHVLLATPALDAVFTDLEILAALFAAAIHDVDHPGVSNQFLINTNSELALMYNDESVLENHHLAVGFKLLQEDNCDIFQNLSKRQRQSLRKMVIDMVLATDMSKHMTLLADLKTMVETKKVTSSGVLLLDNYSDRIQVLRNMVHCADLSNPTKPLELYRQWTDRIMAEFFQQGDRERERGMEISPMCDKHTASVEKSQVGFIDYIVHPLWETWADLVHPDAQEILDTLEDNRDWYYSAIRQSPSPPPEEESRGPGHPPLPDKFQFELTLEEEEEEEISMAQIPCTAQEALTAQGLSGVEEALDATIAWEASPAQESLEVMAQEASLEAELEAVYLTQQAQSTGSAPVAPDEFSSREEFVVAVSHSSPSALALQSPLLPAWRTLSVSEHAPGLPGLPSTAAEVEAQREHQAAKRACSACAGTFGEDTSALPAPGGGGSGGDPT
Description: Inhibition of phosphodiesterase (PDE) 4A

Rattus norvegicus [11] = experiment: Eosinophil accumulation in sensitized brown norway rats at 3.2 mg/kg dose (No of rats = 5); format: functional

Row | SMILES | Activation (Rattus norvegicus [1]) | pIC50 [2] | pIC50 (PBMC [3]) | pIC50 (PBMC [4]) | pIC50 [5] | pIC50 (PBMC [6]) | pIC50 [7] | pIC50 (PBMC [8]) | pIC50 [9] | pIC50 (Homo sapiens) | pIC50 [10] | Activation (Rattus norvegicus [11])
1 | COc1cccc(COc2cc(C(=O)NN(C)C)cc(N3CC(c4ccc(OC)c(OC5CCCC5)c4)CC3=O)c2)c1 (stereo unspecified) | 10 mU ml-1 | 8.3 | 7.6 | 7.3 | 8.8 | 7.7 | < 4 | 7.8 | 8.3 | 7.3 | 8.6 | 
2 | COc1cccc(COc2cccc(N3CC(c4ccc(OC)c(OC5CCCC5)c4)CC3=O)c2)c1 (stereo unspecified) |  | 8.6 |  |  | 8.1 |  | < 4 |  | 8.1 |  | 8.2 | 
3 | COc1ccc(C2CNC(=O)C2)cc1OC1CCCC1 (stereo unspecified) [ROLIPRAM] |  |  | 6.3 |  |  | 7.1 |  | 5.6 |  | 6.1 |  | 
4 | COc1cccc(COc2cc(C(=O)O)cc(N3CC(c4ccc(OC)c(OC5CCCC5)c4)CC3=O)c2)c1 (stereo unspecified) |  | 7.7 | 6.6 | 7.2 | 7.9 | 7.4 | < 4 | 7.5 | 7.5 | 6.6 | 7.9 | 5 mU ml-1
